Reference: ChEMBL document CHEMBL5042477, “Potent Cyclic Peptide Inhibitors of FXIIa Discovered by mRNA Display with Genetic Code Reprogramming” (J Med Chem, 2021)
Where a SMILES comes first, the peptide text is derived from it. Bridges are numbered along the chain shown (N, C = ends). [ ]: non-standard residue; d: D form. Phe(4-CF3) = N[C@@H](Cc1ccc(C(F)(F)F)cc1)C(=O)O; Phe(2-CF3) = N[C@@H](Cc1ccccc1C(F)(F)F)C(=O)O; Phe(2-CN) = N#Cc1ccccc1C[C@H](N)C(=O)O; Phe(3-F) = N[C@@H](Cc1cccc(F)c1)C(=O)O; Phe(4-Me) = Cc1ccc(C[C@H](N)C(=O)O)cc1; Phe(2-Me) = Cc1ccccc1C[C@H](N)C(=O)O; hPhe = N[C@@H](CCc1ccccc1)C(=O)O; 2Pal = N[C@@H](Cc1ccccn1)C(=O)O; 3Pal = N[C@@H](Cc1cccnc1)C(=O)O; Tic = O=C(O)[C@@H]1Cc2ccccc2CN1

Molecular target: T1, Coagulation factor XII (Homo sapiens, UniProt P00748)
T1 sequence (P00748 whole entry): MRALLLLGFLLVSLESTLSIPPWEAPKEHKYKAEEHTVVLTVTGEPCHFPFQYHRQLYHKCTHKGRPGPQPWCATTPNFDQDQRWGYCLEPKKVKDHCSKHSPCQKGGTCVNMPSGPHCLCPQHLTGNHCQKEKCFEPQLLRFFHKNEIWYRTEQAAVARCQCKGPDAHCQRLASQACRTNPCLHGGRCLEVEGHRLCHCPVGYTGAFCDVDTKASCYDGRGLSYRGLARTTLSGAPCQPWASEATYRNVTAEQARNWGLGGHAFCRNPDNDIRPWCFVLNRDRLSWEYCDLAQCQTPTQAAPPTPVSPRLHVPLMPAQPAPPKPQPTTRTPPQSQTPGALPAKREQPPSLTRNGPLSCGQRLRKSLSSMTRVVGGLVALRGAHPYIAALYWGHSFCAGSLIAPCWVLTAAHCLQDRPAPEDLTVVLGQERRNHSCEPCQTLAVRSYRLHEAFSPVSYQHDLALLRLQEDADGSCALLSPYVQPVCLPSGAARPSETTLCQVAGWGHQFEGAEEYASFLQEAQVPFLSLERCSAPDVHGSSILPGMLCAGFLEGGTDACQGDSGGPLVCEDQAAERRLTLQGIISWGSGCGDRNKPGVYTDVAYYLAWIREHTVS
Assay: Inhibition of human factor 12a using H-D-Pro-Phe-Arg-p-nitroanilide as chromogenic substrate assessed as liberation of p-nitroaniline measured every 5 mins for 60 min by multimode plate reader analysis

IC50 [µM] | SMILES
0.065 | CC(C)C[C@@H]1NC(=O)[C@H](Cc2ccc(O)cc2)NC(=O)CSC[C@@H](C(N)=O)NC(=O)CNC(=O)CNC(=O)[C@H](CCCNC(=N)N)NC(=O)[C@H](CC(=O)O)NC(=O)[C@H](CCCCN)NC(=O)[C@@H]2CCCN2C(=O)[C@H](CCCCN)NC(=O)[C@H](Cc2ccccc2)NC(=O)[C@H](CCCNC(=N)N)NC1=O ({CH2CO}-YLRFKPKDRGGC-NH2; thioether N-12)
73 | CC(C)C[C@@H]1NC(=O)[C@H](Cc2ccc(O)cc2)NC(=O)CSC[C@@H](C(N)=O)NC(=O)[C@H](C)NC(=O)CNC(=O)[C@H](CCC(N)=O)NC(=O)[C@H](CC(N)=O)NC(=O)[C@H]([C@@H](C)O)NC(=O)[C@@H]2CCCN2C(=O)[C@H](CCCCN)NC(=O)[C@H](CC(C)C)NC(=O)[C@H](CCCNC(=N)N)NC1=O ({CH2CO}-YLRLKPTNQGAC-NH2; thioether N-12)
0.096 | CC(C)C[C@@H]1NC(=O)[C@H](Cc2ccc(O)cc2)NC(=O)CSC[C@@H](C(N)=O)NC(=O)CNC(=O)CNC(=O)[C@H](CCCNC(=N)N)NC(=O)[C@H](CC(=O)O)NC(=O)[C@H](CCCCN)NC(=O)[C@@H]2CCCN2C(=O)[C@H](CCCNC(=N)N)NC(=O)[C@H](Cc2ccccn2)NC(=O)[C@H](CCCNC(=N)N)NC1=O ({CH2CO}-YLR[2Pal]RPKDRGGC-NH2; thioether N-12)
74 | CC(C)C[C@@H]1NC(=O)[C@H](Cc2ccc(C(F)(F)F)cc2)NC(=O)CSC[C@@H](C(N)=O)NC(=O)CNC(=O)CNC(=O)[C@H](CCCNC(=N)N)NC(=O)[C@H](CC(=O)O)NC(=O)[C@H](CCCCN)NC(=O)[C@@H]2CCCN2C(=O)[C@H](CCCNC(=N)N)NC(=O)[C@H](Cc2ccccc2)NC(=O)[C@H](CCCNC(=N)N)NC1=O ({CH2CO}-[Phe(4-CF3)]LRFRPKDRGGC-NH2; thioether N-12)
27 | CC(C)C[C@@H]1NC(=O)[C@H](Cc2ccc(O)cc2)NC(=O)CSC[C@@H](C(N)=O)NC(=O)CNC(=O)[C@H](C)NC(=O)[C@H](CCCNC(=N)N)NC(=O)[C@H](CC(=O)O)NC(=O)[C@H](CCCCN)NC(=O)[C@@H]2CCCN2C(=O)[C@H](CCCNC(=N)N)NC(=O)[C@H](Cc2ccccc2)NC(=O)[C@H](CCCNC(=N)N)NC1=O ({CH2CO}-YLRFRPKDRAGC-NH2; thioether N-12)
14 | CC(C)C[C@@H]1NC(=O)[C@H](Cc2ccccc2C#N)NC(=O)CSC[C@@H](C(N)=O)NC(=O)CNC(=O)CNC(=O)[C@H](CCCNC(=N)N)NC(=O)[C@H](CC(=O)O)NC(=O)[C@H](CCCCN)NC(=O)[C@@H]2CCCN2C(=O)[C@H](CCCNC(=N)N)NC(=O)[C@H](Cc2ccccc2)NC(=O)[C@H](CCCNC(=N)N)NC1=O ({CH2CO}-[Phe(2-CN)]LRFRPKDRGGC-NH2; thioether N-12)
15 | CC(C)C[C@@H]1NC(=O)[C@H](Cc2cccnc2)NC(=O)CSC[C@@H](C(N)=O)NC(=O)CNC(=O)CNC(=O)[C@H](CCCNC(=N)N)NC(=O)[C@H](CC(=O)O)NC(=O)[C@H](CCCCN)NC(=O)[C@@H]2CCCN2C(=O)[C@H](CCCNC(=N)N)NC(=O)[C@H](Cc2ccccc2)NC(=O)[C@H](CCCNC(=N)N)NC1=O ({CH2CO}-[3Pal]LRFRPKDRGGC-NH2; thioether N-12)
0.042 | CC(C)C[C@@H]1NC(=O)[C@H](Cc2ccc(O)cc2)NC(=O)CSC[C@@H](C(N)=O)NC(=O)CNC(=O)CNC(=O)[C@H](CCCNC(=N)N)NC(=O)[C@H](CC(=O)O)NC(=O)[C@H](CCCCN)NC(=O)[C@@H]2CCCN2C(=O)[C@H](CCCNC(=N)N)NC(=O)[C@H](Cc2ccccc2C(F)(F)F)NC(=O)[C@H](CCCNC(=N)N)NC1=O ({CH2CO}-YLR[Phe(2-CF3)]RPKDRGGC-NH2; thioether N-12)
0.65 | CC(C)C[C@@H]1NC(=O)[C@H](Cc2cccc(F)c2)NC(=O)CSC[C@@H](C(N)=O)NC(=O)CNC(=O)CNC(=O)[C@H](CCCNC(=N)N)NC(=O)[C@H](CC(=O)O)NC(=O)[C@H](CCCCN)NC(=O)[C@@H]2CCCN2C(=O)[C@H](CCCNC(=N)N)NC(=O)[C@H](Cc2ccccc2)NC(=O)[C@H](CCCNC(=N)N)NC1=O ({CH2CO}-[Phe(3-F)]LRFRPKDRGGC-NH2; thioether N-12)
0.3 | CC(C)C[C@@H]1NC(=O)[C@H](Cc2ccc(O)cc2)NC(=O)CSC[C@@H](C(N)=O)NC(=O)CNC(=O)CNC(=O)[C@H](CCCNC(=N)N)NC(=O)[C@H](CC(=O)O)NC(=O)[C@H](CCCCN)NC(=O)[C@@H]2CCCN2C(=O)[C@H](CCCNC(=N)N)NC(=O)[C@H](Cc2ccccc2)NC(=O)[C@H](CCCCN)NC1=O ({CH2CO}-YLKFRPKDRGGC-NH2; thioether N-12)
410 | CC(C)C[C@@H]1NC(=O)[C@H](CCCNC(=N)N)NC(=O)[C@H](C)NC(=O)[C@H](Cc2ccc(O)cc2)NC(=O)CSC[C@@H](C(N)=O)NC(=O)CNC(=O)CNC(=O)[C@H](CCC(N)=O)NC(=O)[C@H](CC(N)=O)NC(=O)[C@H]([C@@H](C)O)NC(=O)[C@@H]2CCCN2C(=O)[C@H](CCCCN)NC1=O ({CH2CO}-YARLKPTNQGGC-NH2; thioether N-12)
0.043 | Cc1ccccc1C[C@@H]1NC(=O)[C@H](CCCNC(=N)N)NC(=O)[C@H](CC(C)C)NC(=O)[C@H](Cc2ccc(O)cc2)NC(=O)CSC[C@@H](C(N)=O)NC(=O)CNC(=O)CNC(=O)[C@H](CCCNC(=N)N)NC(=O)[C@H](CC(=O)O)NC(=O)[C@H](CCCCN)NC(=O)[C@@H]2CCCN2C(=O)[C@H](CCCNC(=N)N)NC1=O ({CH2CO}-YLR[Phe(2-Me)]RPKDRGGC-NH2; thioether N-12)
15 | CC(C)C[C@@H]1NC(=O)[C@H](Cc2ccc(O)cc2)NC(=O)CSC[C@@H](C(N)=O)NC(=O)[C@H](C)NC(=O)CNC(=O)[C@H](CCCNC(=N)N)NC(=O)[C@H](CC(=O)O)NC(=O)[C@H](CCCCN)NC(=O)[C@@H]2CCCN2C(=O)[C@H](CCCNC(=N)N)NC(=O)[C@H](Cc2ccccc2)NC(=O)[C@H](CCCNC(=N)N)NC1=O ({CH2CO}-YLRFRPKDRGAC-NH2; thioether N-12)
0.48 | CC(C)C[C@@H]1NC(=O)[C@H](Cc2ccccc2)NC(=O)CSC[C@@H](C(N)=O)NC(=O)CNC(=O)CNC(=O)[C@H](CCCNC(=N)N)NC(=O)[C@H](CC(=O)O)NC(=O)[C@H](CCCCN)NC(=O)[C@@H]2CCCN2C(=O)[C@H](CCCNC(=N)N)NC(=O)[C@H](Cc2ccccc2)NC(=O)[C@H](CCCNC(=N)N)NC1=O ({CH2CO}-FLRFRPKDRGGC-NH2; thioether N-12)
500 | CC(C)C[C@@H]1NC(=O)[C@H](C)NC(=O)CSC[C@@H](C(N)=O)NC(=O)CNC(=O)CNC(=O)[C@H](CCCNC(=N)N)NC(=O)[C@H](CC(=O)O)NC(=O)[C@H](CCCCN)NC(=O)[C@@H]2CCCN2C(=O)[C@H](CCCNC(=N)N)NC(=O)[C@H](Cc2ccccc2)NC(=O)[C@H](CCCNC(=N)N)NC1=O ({CH2CO}-ALRFRPKDRGGC-NH2; thioether N-12)
21 | CC(C)C[C@@H]1NC(=O)[C@H](Cc2ccc(O)cc2)NC(=O)CSC[C@@H](C(N)=O)NC(=O)CNC(=O)[C@H](C)NC(=O)[C@H](CCC(N)=O)NC(=O)[C@H](CC(N)=O)NC(=O)[C@H]([C@@H](C)O)NC(=O)[C@@H]2CCCN2C(=O)[C@H](CCCCN)NC(=O)[C@H](CC(C)C)NC(=O)[C@H](CCCNC(=N)N)NC1=O ({CH2CO}-YLRLKPTNQAGC-NH2; thioether N-12)
0.056 | Cc1ccc(C[C@@H]2NC(=O)[C@H](CCCNC(=N)N)NC(=O)[C@H](CC(C)C)NC(=O)[C@H](Cc3ccc(O)cc3)NC(=O)CSC[C@@H](C(N)=O)NC(=O)CNC(=O)CNC(=O)[C@H](CCCNC(=N)N)NC(=O)[C@H](CC(=O)O)NC(=O)[C@H](CCCCN)NC(=O)[C@@H]3CCCN3C(=O)[C@H](CCCNC(=N)N)NC2=O)cc1 ({CH2CO}-YLR[Phe(4-Me)]RPKDRGGC-NH2; thioether N-12)
0.74 | CC(C)C[C@@H]1NC(=O)[C@H](Cc2ccc(O)cc2)NC(=O)CSC[C@@H](C(N)=O)NC(=O)CNC(=O)CNC(=O)[C@H](CCCNC(=N)N)NC(=O)[C@H](CC(=O)O)NC(=O)[C@H](CCCCN)NC(=O)[C@@H]2CCCN2C(=O)[C@H](CCCNC(=N)N)NC(=O)[C@H](CCc2ccccc2)NC(=O)[C@H](CCCNC(=N)N)NC1=O ({CH2CO}-YLR[hPhe]RPKDRGGC-NH2; thioether N-12)
0.26 | CC(C)C[C@@H]1NC(=O)[C@H](Cc2ccc(O)cc2)NC(=O)CSC[C@@H](C(N)=O)NC(=O)CNC(=O)CNC(=O)[C@H](CCCNC(=N)N)NC(=O)[C@H](CC(=O)O)NC(=O)[C@H](CCCCN)NC(=O)[C@@H]2CCCN2C(=O)[C@H](CCCNC(=N)N)NC(=O)[C@H](Cc2ccc(O)cc2)NC(=O)[C@H](CCCNC(=N)N)NC1=O ({CH2CO}-YLRYRPKDRGGC-NH2; thioether N-12)
22 | CC(C)C[C@@H]1NC(=O)[C@H](Cc2ccc(O)cc2)NC(=O)CSC[C@@H](C(N)=O)NC(=O)CNC(=O)CNC(=O)[C@H](CCCNC(=N)N)NC(=O)[C@H](CC(=O)O)NC(=O)[C@H](CCCCN)NC(=O)[C@@H]2CCCN2C(=O)[C@H](CCCNC(=N)N)NC(=O)[C@@H]2Cc3ccccc3CN2C(=O)[C@H](CCCNC(=N)N)NC1=O ({CH2CO}-YLR[Tic]RPKDRGGC-NH2; thioether N-12)
0.26 | CC(C)C[C@@H]1NC(=O)[C@H](Cc2ccc(O)cc2)NC(=O)CSC[C@@H](C(N)=O)NC(=O)CNC(=O)CNC(=O)[C@H](CCCNC(=N)N)NC(=O)[C@H](CC(=O)O)NC(=O)[C@H](CCCCN)NC(=O)[C@H](C)NC(=O)[C@H](CCCNC(=N)N)NC(=O)[C@H](Cc2ccccc2)NC(=O)[C@H](CCCNC(=N)N)NC1=O ({CH2CO}-YLRFRAKDRGGC-NH2; thioether N-12)
